According to paper PMC9415646, “Improving Aqueous Solubility and In Vitro Pharmacokinetic Properties of the 3-Nitroimidazo[1,2-a]pyridine Antileishmanial Pharmacophore” (Pharmaceuticals, 2022):
Several values for one entry are separate records, joined by “and”; a condition that tells them apart may be missing. Equal entries are not always repeated. Where two headings read alike, the source gives them in different places.

How the values were obtained:
[1] = tested on: T. b. brucei BSF trypomastigotes; assay: Antitrypanosomal evaluation on T. b. brucei BSF trypomastigotes (Alamar Blue); assay type: cell-based; conditions: Trypanosoma brucei, trypomastigote blood stream form
Protocol: The effects of the tested compounds on the growth of T. b. brucei were assessed by Alamar Blue® assay described by Räz et al. T. b. brucei AnTat 1.9 (IMTA, Antwerpen, Belgium) was cultured in MEM with Earle’s salts, supplemented according to the protocol of Baltz et al. with the following modifications: 0.5 mM mercaptoethanol (Sigma Aldrich®, France), 1.5 mM L-cysteine (Sigma Aldrich®), 0.05 mM bathocuproïne sulfate (Sigma Aldrich®) and 20% heat-inactivated horse serum (Gibco®, France), at 37 °C and 5% CO2. They were incubated at an average density of 2000 parasites/100 µL in sterile 96-wells plates (Fisher®, France) with various concentrations of compounds dissolved in DMSO, in duplicate. Appropriate controls suramin, treated with sterile water, and fexinidazole, treated with DMSO on sterile water (reference drugs purchased from Sigma Aldrich, France and Fluorochem, UK) were added to each set of experiments. After a 69 h incubation period at 37 °C, 10 µL of the viability marker Alamar Blue® (Fisher, France) were then added to each well, and the plates were incubated for 5 h. The plates were read in a ENSPIRE microplate reader (PerkinElmer, Waltham, MA, USA) using an excitation wavelength of 530 nm and an emission wavelength of 590 nm. […] EC50 were calculated by nonlinear regression analysis processed on dose-response curves, using GraphPad Prism software (USA). EC50 values were calculated from three separate experiments.

[2] = molecular target: T1, Albumin from human plasma (Homo sapiens, UniProt P02768); assay: Plasma protein (albumin) binding; assay type: in vitro ADME
T1 construct: from tissue; host or cells: plasma
Protocol: Plasma doped with the tested compound was incubated at 37 °C in triplicate in one of the compartments of the insert, the other compartment containing a phosphate buffer solution at pH 7.2. After stirring for 4 h at 300 rpm, a 25 μL aliquot of each compartment was taken and diluted; the dilution solution was adapted so as to obtain an identical matrix for all the compartments after dilution. Parallel, reprocessing of a plasma doped but not incubated was used to assess recovery. The LC-MS used for this study was a Waters® Acquity I-Class/Xevo TQD, equipped with a Waters® Acquity BEH C18 column, 50 × 2.1 mm, […]. The mobile phases were (A) ammonium acetate 10 mM and (B) acetonitrile with 0.1% formic acid. The injection volume was 1 µL and the flow rate 600 µL/min. Chromatographic analysis, total duration of 4 min, was performed along the following gradient: 0 < t < 0.2 min, 2% (B); 0.2 < t < 2 min, linear increase to 98% (B); 2 < t < 2.5 min, 98% (B); 2.5 < t < 2.6 min, linear decrease to 2% (B); 2.6 < t < 4 min, 2% (B). Carbamazepine, oxazepam, warfarin and diclofenac were used as reference drugs and propranolol as internal standard. The unbound fraction (fu) was calculated according to the following formula: fu=APlasma, 4h−APBS,4h/APlasma, 4h×100 . The percentage of recovery was calculated according to the following formula: % Recovery=(VPBS×APBS,4h)+(VPlasma×APlasma,4h)/(VPlasma×APlasma,0h) where A is the ratio of the area under peak of the studied molecule and the area under peak of the internal standard (propranolol 200 nM). V is the volume of solution present in the compartments (VPBS = 350 µL and Vplasma = 200 µL).

[3] = tested on: T. b. brucei BSF trypomastigotes; design: method as in PMID 30655943; conditions: previously evaluated hit compounds; cited from earlier work
[4] = tested on: THP1 cell line; design: method as in PMID 24080103, PMID 30655943; conditions: previously identified hit compounds; cited from earlier work
[5] = tested on: HepG2 cell line; design: method as in PMID 24080103, PMID 30655943; conditions: previously identified hit compounds; cited from earlier work
[6] = tested on: L. infantum axenic amastigotes; design: method as in PMID 24080103, PMID 30655943; conditions: previously identified hit compounds; cited from earlier work

T1 sequence (P02768 25-609): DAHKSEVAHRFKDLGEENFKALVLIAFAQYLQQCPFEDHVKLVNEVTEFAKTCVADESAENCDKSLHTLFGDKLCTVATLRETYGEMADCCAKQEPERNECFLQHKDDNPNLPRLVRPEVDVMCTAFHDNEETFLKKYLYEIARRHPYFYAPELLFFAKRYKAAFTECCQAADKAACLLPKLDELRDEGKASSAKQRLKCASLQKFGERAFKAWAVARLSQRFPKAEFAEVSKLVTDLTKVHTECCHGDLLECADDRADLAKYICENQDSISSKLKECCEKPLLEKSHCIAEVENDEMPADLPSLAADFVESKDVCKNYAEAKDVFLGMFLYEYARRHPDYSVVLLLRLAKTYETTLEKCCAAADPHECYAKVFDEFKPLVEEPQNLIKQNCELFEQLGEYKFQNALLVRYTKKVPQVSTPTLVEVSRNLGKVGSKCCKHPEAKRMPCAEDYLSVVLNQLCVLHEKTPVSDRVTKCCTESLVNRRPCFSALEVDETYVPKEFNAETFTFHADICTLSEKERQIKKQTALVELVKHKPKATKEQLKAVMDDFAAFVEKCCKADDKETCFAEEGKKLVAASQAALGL

| Compound | EC50 [1] [nM] | Albumin Binding [2] | other results |
| --- | --- | --- | --- |
| O=[N+]([O-])c1c(CS(=O)(=O)c2ccc(O)cc2)nc2c(Sc3ccc(Cl)cc3)cc(Cl)cn12 [Compound 3a, 4-{[(6-Chloro-8-[(4-Chlorophenyl)thio]-3-Nitroimidazo[1,2-a]pyridin-2-yl)methyl]sulfonyl}phenol] | 780 ± 50 |  |  |
| O=[N+]([O-])c1c(CS(=O)(=O)c2ccc(F)cc2)nc2c(Sc3ccc(Cl)cc3)cc(Cl)cn12 [Compound 3c, 6-Chloro-8-[(4-Chlorophenyl)thio]-2-[(4-Fluorophenylsulfonyl)methyl]-3-Nitroimidazo[1,2-a]pyridine] | 570 ± 20 |  |  |
| O=[N+]([O-])c1c(CS(=O)(=O)c2ccc(C(F)(F)F)cc2)nc2c(Sc3ccc(Cl)cc3)cc(Cl)cn12 [Compound 3d, 6-Chloro-8-[(4-Chlorophenyl)thio]-3-Nitro-2-[(4-Trifluoromethylphenylsulfonyl)methyl]imidazo[1,2-a]pyridine] | 890 ± 70 |  |  |
| O=[N+]([O-])c1c(CS(=O)(=O)CCC(F)(F)F)nc2c(Sc3ccc(Cl)cc3)cc(Cl)cn12 [Compound 3i, 6-Chloro-8-[(4-Chlorophenyl)thio]-3-Nitro-2-[(3,3,3-Trifluoropropylsulfonyl)methyl]imidazo[1,2-a]pyridine] |  | 99.8% and 99.76% |  |
| O=[N+]([O-])c1c(CS(=O)(=O)CCC(F)(F)F)nc2c(-c3ccncc3)cc(Cl)cn12 [Compound 7, 6-Chloro-3-Nitro-8-(Pyridin-4-yl)-2-[(3,3,3-Trifluoropropylsulfonyl)methyl]imidazo[1,2-a]pyridine] |  | 88.6% and 88.65% |  |
| CSc1ccc(OCc2ncc([N+](=O)[O-])n2C)cc1 [Fexinidazole, reference compound] | 1400 ± 500 |  |  |
| O=[N+]([O-])c1c(CS(=O)(=O)c2ccccc2)nc2c(Br)cc(Cl)cn12 [Hit A, 8-Bromo-6-chloro-3-nitro-2-(phenylsulfonylmethyl)imidazo[1,2-a]pyridine, reference compound] |  | 96.50% | EC50 [3]: 1400 ± 400 nM; CC50 [4]: > 100000 nM; CC50 [5]: > 15600 nM; EC50 [6]: 16400 ± 1300 nM |
| O=[N+]([O-])c1c(CS(=O)(=O)c2ccccc2)nc2c(Sc3ccc(Cl)cc3)cc(Cl)cn12 [Hit B, reference compound] |  | 99.95% | EC50 [3]: 950 ± 50 nM; CC50 [4]: > 62500 nM; CC50 [5]: > 100000 nM; EC50 [6]: 1700 ± 300 nM |
